{
  "source": "paper PMC9078525",
  "about": "“Inhibitory effects of garcinone E on fatty acid synthase” (RSC Advances, 2018)",
  "key": {"FAS": {"system": "FAS", "conditions": "cited from earlier work"}, "[1]": {"target": "T1, KR (β-ketoacyl reductase) of chicken FAS (Gallus gallus, UniProt P12276)", "T1 construct": "tissue Huadu Broiler Corporation, Beijing; host or cells: chicken liver", "T1 sequence (P12276 whole entry)": "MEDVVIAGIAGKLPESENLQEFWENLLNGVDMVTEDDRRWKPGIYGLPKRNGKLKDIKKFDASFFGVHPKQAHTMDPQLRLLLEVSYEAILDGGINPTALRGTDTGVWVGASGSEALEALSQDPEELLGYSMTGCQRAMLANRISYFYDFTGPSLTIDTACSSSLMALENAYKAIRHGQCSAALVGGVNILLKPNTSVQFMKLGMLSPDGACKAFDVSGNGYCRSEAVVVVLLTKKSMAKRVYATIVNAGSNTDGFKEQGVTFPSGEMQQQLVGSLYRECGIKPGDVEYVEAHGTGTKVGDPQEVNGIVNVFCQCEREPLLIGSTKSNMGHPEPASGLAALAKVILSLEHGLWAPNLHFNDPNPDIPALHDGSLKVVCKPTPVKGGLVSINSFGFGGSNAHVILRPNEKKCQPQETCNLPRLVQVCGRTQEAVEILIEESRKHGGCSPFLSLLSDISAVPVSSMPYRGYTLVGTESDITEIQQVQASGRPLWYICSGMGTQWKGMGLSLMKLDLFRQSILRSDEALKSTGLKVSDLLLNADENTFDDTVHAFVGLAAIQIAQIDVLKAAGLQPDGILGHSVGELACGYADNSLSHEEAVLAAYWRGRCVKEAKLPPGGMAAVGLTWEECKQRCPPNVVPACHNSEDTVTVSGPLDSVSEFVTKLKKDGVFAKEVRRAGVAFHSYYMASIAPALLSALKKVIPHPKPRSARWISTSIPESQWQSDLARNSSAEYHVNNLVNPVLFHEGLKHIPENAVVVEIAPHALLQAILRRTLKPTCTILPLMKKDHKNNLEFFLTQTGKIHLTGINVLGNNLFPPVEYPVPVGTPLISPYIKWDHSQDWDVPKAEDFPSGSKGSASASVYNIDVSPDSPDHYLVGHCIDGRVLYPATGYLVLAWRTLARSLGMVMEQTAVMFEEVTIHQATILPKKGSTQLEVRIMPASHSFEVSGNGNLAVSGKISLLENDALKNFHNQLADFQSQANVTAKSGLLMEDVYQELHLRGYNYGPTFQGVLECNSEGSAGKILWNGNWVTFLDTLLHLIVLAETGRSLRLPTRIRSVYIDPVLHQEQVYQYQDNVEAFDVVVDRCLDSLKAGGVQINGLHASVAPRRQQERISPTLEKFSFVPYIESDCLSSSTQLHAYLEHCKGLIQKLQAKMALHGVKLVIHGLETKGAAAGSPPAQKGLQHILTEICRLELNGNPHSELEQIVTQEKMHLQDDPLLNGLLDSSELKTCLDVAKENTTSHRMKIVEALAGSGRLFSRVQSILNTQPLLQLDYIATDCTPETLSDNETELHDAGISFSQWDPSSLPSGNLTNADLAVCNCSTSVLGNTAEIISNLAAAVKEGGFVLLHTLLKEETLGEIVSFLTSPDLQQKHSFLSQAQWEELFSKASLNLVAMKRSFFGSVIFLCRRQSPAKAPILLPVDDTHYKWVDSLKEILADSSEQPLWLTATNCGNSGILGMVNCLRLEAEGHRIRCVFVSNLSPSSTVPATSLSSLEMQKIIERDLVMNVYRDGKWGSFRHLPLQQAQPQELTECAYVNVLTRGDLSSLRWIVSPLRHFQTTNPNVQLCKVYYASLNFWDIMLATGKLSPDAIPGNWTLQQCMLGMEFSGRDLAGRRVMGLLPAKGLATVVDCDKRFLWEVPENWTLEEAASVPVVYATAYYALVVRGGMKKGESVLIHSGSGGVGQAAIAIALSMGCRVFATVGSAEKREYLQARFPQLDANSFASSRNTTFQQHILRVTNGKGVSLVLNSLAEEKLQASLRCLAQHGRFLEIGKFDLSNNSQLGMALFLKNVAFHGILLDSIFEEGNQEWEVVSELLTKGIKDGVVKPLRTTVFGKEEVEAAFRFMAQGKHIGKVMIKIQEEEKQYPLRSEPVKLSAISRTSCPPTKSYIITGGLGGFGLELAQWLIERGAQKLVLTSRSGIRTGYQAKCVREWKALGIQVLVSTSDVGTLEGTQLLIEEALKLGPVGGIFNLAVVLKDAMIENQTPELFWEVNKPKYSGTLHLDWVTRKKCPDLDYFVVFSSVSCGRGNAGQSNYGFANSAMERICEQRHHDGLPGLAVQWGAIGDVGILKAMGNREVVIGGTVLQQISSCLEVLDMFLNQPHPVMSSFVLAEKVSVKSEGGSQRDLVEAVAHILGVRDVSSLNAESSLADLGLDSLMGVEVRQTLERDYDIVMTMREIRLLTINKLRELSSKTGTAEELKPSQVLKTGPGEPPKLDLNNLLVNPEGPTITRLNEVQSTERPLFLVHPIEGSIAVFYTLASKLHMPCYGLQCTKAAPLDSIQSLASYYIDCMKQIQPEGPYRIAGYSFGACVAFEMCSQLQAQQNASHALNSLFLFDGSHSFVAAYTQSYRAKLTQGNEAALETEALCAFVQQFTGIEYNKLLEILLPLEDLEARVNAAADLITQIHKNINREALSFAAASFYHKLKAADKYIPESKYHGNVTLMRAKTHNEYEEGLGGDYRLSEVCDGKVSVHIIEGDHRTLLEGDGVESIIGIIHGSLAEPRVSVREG", "test": "Fast-binding inhibition of β-ketoacyl reduction (KR) activity of FAS", "format": "biochemical", "conditions": "fast-binding reversible inhibition, 37 °C", "method": "(§1) The preparation of FAS from chicken liver (Huadu Broiler Corporation, Beijing) was performed as described previously.[24] The amino acid sequence of chicken FAS has 63% identity with the sequence of human enzyme.[25] All animal operations followed the Guidelines for the Care and Use of Laboratory Animals established by the National Research Council (US) Institute for Laboratory Animal Research. The purified FAS was homogenized by polyacrylamide gel electrophoresis in the presence and absence of sodium dodecyl sulfate, respectively.\n(§2) The FAS activity was measured at 37 °C by spectrophotometer at 340 nm of NADPH absorption. The overall reaction system contained 100 mM KH2PO4–K2HPO4 buffer, 1 mM EDTA, 1 mM dithiothreitol, 3 μM Ac-CoA, 10 μM Mal-CoA, 35 μM NADPH, and 10 μg FAS in a total volume of 2 ml as previously described.[26,27] The assay for β-ketoacyl reduction activity of FAS was catalyzed by KR containing 100 mM KH2PO4–K2HPO4 buffer, 200 mM ethyl acetoacetate, 35 μM NADPH, and 20 μg FAS in a total volume of 2 ml (pH 7.0).\n(§3) The activity of KR was determined at 37 °C by measuring the change of absorption at 340 nm. The KR reaction mixture (2 ml) contained 40 mM ethyl acetoacetate, 35 μM NADPH, 1 mM EDTA, 1 mM DTT and 10 μg of FAS in 100 mM phosphate buffer, pH 7.0.[28]"}, "[2]": {"target": "T2, chicken FAS (overall reaction) (Gallus gallus, UniProt P12276)", "T2 construct": "tissue Huadu Broiler Corporation, Beijing; host or cells: chicken liver", "T2 sequence (P12276 whole entry)": "as above", "test": "Fast-binding inhibition of FAS overall reaction (NADPH absorption at 340 nm)", "format": "biochemical", "conditions": "fast-binding reversible inhibition, 37 °C; read-out: IC50 (half-inhibitory concentration), overall reaction of FAS", "method": "as §1, §2\nReversible inhibition was determined by adding the inhibitor to the reaction system before the reaction was initiated. The activities of FAS in the presence and absence of garcinone E (dissolved in DMSO) were designated as Ai and A0 respectively. The value of Ai/A0 × 100% was defined as the relative activity (R.A.) of FAS. […]"}, "[3]": {"target": "T1, KR (β-ketoacyl reductase) of chicken FAS", "test": "Time-dependent inactivation of KR reaction of FAS", "format": "biochemical", "method": "as §3\n(§4) Assay of time-dependent inhibition activity was carried out as previous described.[13] The FAS solution was mixed with garcinone E and incubated at 25 °C, and then aliquots were taken to measure the remaining activity at the indicated time intervals to obtain the time course. […] The rate constant of FAS inactivation can be calculated from a semi-log plot of the time course, which is based upon the formula ln At/A0 = −kobst. The At/A0 expresses the remaining activity at t time, and kobs is the observed rate constant. Based on earlier studies, the inhibition of FAS activity is due to both fast-binding and time-dependent inhibitions, although sometimes the fast-binding reversible inhibition is not potent enough to affect the enzyme."}, "[4]": {"target": "T2, chicken FAS (overall reaction)", "test": "Time-dependent (slow-binding irreversible) inactivation of FAS overall reaction", "format": "biochemical", "method": "as §4"}, "[5]": {"target": "T2, chicken FAS (overall reaction)", "test": "Enzyme inhibition kinetics (double reciprocal plots, variable substrate)", "format": "biochemical", "conditions": "for Ki: secondary plot of slopes, read-out: Inhibition constant Kis; for Inhibition constant Kii: secondary plot of intercepts", "description": "Possible interference by the inhibitor at each substrate binding site was examined by holding the concentration of the inhibitor at several fixed levels respectively, and increasing one substrate concentration while keeping the concentrations of the other substrates constant. Double reciprocal plots for every concentration of the inhibitor were yielded to estimate the competitive relationship between the variable substrate and inhibitor concentrations. This study is based on fast-binding inhibition.\nInhibition kinetics study was carried out to elucidate the mechanism of the reversible inhibition of FAS by garcinone E. Possible interference by garcinone E at each substrate-binding site was examined by holding the concentration of garcinone E at a constant value, and measuring the effect of increasing one substrate concentration (the concentrations of the other two substrates were fixed) on the initial reaction rate. Double-reciprocal plots of the results (Fig. 3A–C) yielded three families of straight lines, which had different intersections, for three substrates of FAS. […] However, the lines for NADPH (Fig. 3C) intersected on the X axis, from which it was concluded that garcinone E was a typically noncompetitive inhibitor of FAS against NADPH.\nFig. 3 Lineweaver–Burke plots for inhibition of FAS activity by garcinone E. Double reciprocal plots for inhibition of FAS by garcinone E. The activity of the overall reaction of FAS was measured. (A) The concentrations of Mal-CoA and NADPH were fixed at 10 μM and 35 μM, respectively. Ac-CoA was the variable substrate. […] (B) The concentrations of Ac-CoA and NADPH were fixed at 3 μM and 35 μM, respectively. Mal-CoA was the variable substrate. […] (C) The concentrations of Ac-CoA and Mal-CoA were fixed at 3 μM and 10 μM, respectively. NADPH was the variable substrate. […] Each datum was the mean from 2–5 experiments."}, "chicken FAS": {"target": "T3, chicken FAS (Gallus gallus, UniProt P12276)", "T3 construct": "tissue Huadu Broiler Corporation, Beijing; host or cells: chicken liver", "T3 sequence (P12276 whole entry)": "as above", "test": "Substrate protection for time-dependent inactivation of FAS", "format": "biochemical", "conditions": "10.0 μM garcinone E", "method": "as §4\nFurthermore, substrate protection for time-dependent inhibition was examined in the measurement of FAS inactivation by garcinone E with 10 μM Ac-CoA, 10 μM Mal-CoA, or 10 μM NADPH, respectively. Inactivation in the same condition but without any substrate was the control. […] Therefore, the substrates of Mal-CoA and NADPH had no obvious protection effect. However, the inactivation was slowed by Ac-CoA."}},
  "note": "Read-outs that look alike come from different tables or passages of the source.",
  "data": [
    {"smiles": "O=C(O[C@@H]1Cc2c(O)cc(O)cc2O[C@@H]1c1cc(O)c(O)c(O)c1)c1cc(O)c(O)c(O)c1", "note": "[EGCG, epigallocatechin gallate]", "values": [
      {"measurement": "IC50", "setting": "FAS", "result": 52, "unit": "µM"}
    ]},
    {"smiles": "C/C=C/C/C=C/CCC(=O)[C@H]1O[C@H]1C(N)=O", "note": "[cerulenin]", "values": [
      {"measurement": "IC50", "setting": "FAS", "result": 89, "unit": "µM"}
    ]},
    {"smiles": "CC(C)=CCc1c(O)cc2oc3c(CC=C(C)C)c(O)c(O)c(CC=C(C)C)c3c(=O)c2c1O", "note": "[garcinone E, 2,3,6,8-tetrahydroxy-1,4,7-tris(3-methylbut-2-enyl)-9H-xanthen-9-one]", "values": [
      {"measurement": "IC50", "setting": "[1]", "result": 14.6, "unit": "µM"},
      {"measurement": "IC50", "setting": "[2]", "result": 3.3, "unit": "µM"},
      {"measurement": "irreversible inhibition on KR, in words", "setting": "[3]", "result": "very weak"},
      {"measurement": "kobs of FAS inactivation, KR", "setting": "[3]; 20.0 μM garcinone E, incubated at 25 °C", "result": 0.0004, "unit": "min⁻¹"},
      {"measurement": "time-dependent (slow-binding irreversible) inhibition of FAS overall reaction, in words", "setting": "[4]", "result": "slow-binding irreversible inhibition"},
      {"measurement": "fold difference in inactivation rate between overall reaction and KR", "setting": "[4]; 20.0 μM garcinone E", "result": "more than 20 fold"},
      {"measurement": "Inhibitory manner", "setting": "[5]; variable substrate Ac-CoA, Mal-CoA 10 μM, NADPH 35 μM", "result": "Competitive"},
      {"measurement": "Ki", "setting": "[5]; variable substrate Ac-CoA", "result": 1770, "unit": "nM"},
      {"measurement": "Inhibitory manner", "setting": "[5]; variable substrate Mal-CoA, Ac-CoA 3 μM, NADPH 35 μM", "result": "Mixed competitive and noncompetitive"},
      {"measurement": "Inhibition constant Kii", "setting": "[5]; variable substrate Mal-CoA, binding with enzyme-substrate complex", "result": 5.99, "unit": "µM"},
      {"measurement": "Ki", "setting": "[5]; variable substrate Mal-CoA", "result": 3890, "unit": "nM"},
      {"measurement": "Inhibitory manner", "setting": "[5]; variable substrate NADPH, Ac-CoA 3 μM, Mal-CoA 10 μM", "result": "Noncompetitive"},
      {"measurement": "Inhibition constant Kii", "setting": "[5]; variable substrate NADPH", "result": 2.67, "unit": "µM"},
      {"measurement": "Ki", "setting": "[5]; variable substrate NADPH", "result": 1940, "unit": "nM"},
      {"measurement": "kobs for inactivation of FAS", "setting": "chicken FAS; no protection", "result": "17.4 10^−3 min^−1"},
      {"measurement": "reduction of apparent rate constant by pre-incubation with substrate", "setting": "chicken FAS; pre-incubation with Mal-CoA and NADPH", "result": "less than 10%"},
      {"measurement": "kobs for inactivation of FAS", "setting": "chicken FAS; protection by 10 μM Ac-CoA", "result": "5.3 10^−3 min^−1"},
      {"measurement": "kobs for inactivation of FAS", "setting": "chicken FAS; protection by 10 μM Mal-CoA", "result": "16.6 10^−3 min^−1"},
      {"measurement": "kobs for inactivation of FAS", "setting": "chicken FAS; protection by 10 μM NADPH", "result": "15.9 10^−3 min^−1"}
    ]},
    {"smiles": "COc1c(O)cc2oc3cc(O)c(CC=C(C)C)c(O)c3c(=O)c2c1CC=C(C)C", "note": "[α-mangostin]", "values": [
      {"measurement": "time-dependent (slow-binding irreversible) inhibition of FAS overall reaction, in words", "setting": "[4]", "result": "none of them showed slow-binding inactivation"}
    ]},
    {"smiles": "COc1cc2oc3cc(O)c(OC)c(CC=C(C)C)c3c(=O)c2c(O)c1CC=C(C)C", "note": "[β-mangostin]", "values": [
      {"measurement": "time-dependent (slow-binding irreversible) inhibition of FAS overall reaction, in words", "setting": "[4]", "result": "none of them showed slow-binding inactivation"}
    ]},
    {"smiles": "CC(C)=CCc1c(O)cc2oc3cc(O)c(O)c(CC=C(C)C)c3c(=O)c2c1O", "note": "[γ-mangostin]", "values": [
      {"measurement": "time-dependent (slow-binding irreversible) inhibition of FAS overall reaction, in words", "setting": "[4]", "result": "none of them showed slow-binding inactivation"}
    ]}
  ]
}
